Laboratory results taken from patent US11000033B2, “Ketone or oxime compound, and herbicide” (NISSAN CHEMICAL CORPORATION, priority 2014, dated 2021).

Columns and labels:
Format in all cases: in vivo
soybean = test: Test Example 4: effect on crop by soil treatment (symbol d); conditions: application herbicide amount 320 g/ha
How it was run: (§1)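 Crop seed is sown in spots together with several weed species in a box of sterilized diluvial soil. It is covered by about 1.5 cm of soil and kept in a greenhouse held between 25° C. and 30° C.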

Galium spurium = test: Test Example 5: herbicidal effect by foliage application, plastic box (symbol Q); conditions: 320 g/ha, 3 weeks after application
How it was run: (§2)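 Leaf-applied emulsion, water-diluted to a preset herbicide dose, on two-week-old seedlings raised in a 25° C. to 30° C. greenhouse; injury rated at 3 weeks using earlier criteria.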

Lolium multiflorum Lam. = test: Test Example 5: herbicidal effect by foliage application, plastic box (symbol K); conditions: 320 g/ha, 3 weeks after application
How it was run: as §2

corn = test: Test Example 4: effect on crop by soil treatment (symbol c); conditions: application herbicide amount 320 g/ha
How it was run: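 Diluvial soil (sterilized) in boxes; seeds placed spot-wise alongside weed species; ~1.5 cm covering soil. Greenhouse, 25–30° C.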

Monochoria vaginalis = test: Test Example 1: herbicidal activity, application before weed generation in submerged conditions (symbol C); conditions: application herbicide amount 320 g/ha
How it was run: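 Steps: alluvial soil flooded to 4 cm; weed seeds sown together; rice seedlings (2.5 leaf) transplanted; diluted emulsion applied to water surface the same day as sowing; plants grown at 25–30 °C in greenhouse; herbicidal effect rated on a 0–5 scale at 3 weeks.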

[1] = test system: Echinochloa oryzacola Vasing.; test: Test Example 2: herbicidal activity, application during weed generation in submerged conditions (symbol A); conditions: Table 23; application herbicide amount 320 g/ha; grade 0-5 by criteria of Test Example 1
How it was run: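 Read-out: herbicidal effect on each species rated on a visual scale 3 weeks after treatment. Plants were raised together from seed in flooded alluvial soil (4 cm water) at 25° C. to 30° C. and treated at one to two leaves by water-surface application of diluted emulsion.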

beet = test: Test Example 4: effect on crop by soil treatment (symbol f); conditions: application herbicide amount 320 g/ha
How it was run: as §1

Leptochloa chinensis = test: Test Example 3: herbicidal effect by foliage application, Wagner pot (symbol D); conditions: application herbicide amount 320 g/ha
How it was run: (§3)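 Scoring took place 3 weeks after application, using fixed criteria. Plants had been raised from seed for 14 days at 25 to 30 °C in submerged alluvial soil before a diluted emulsion of the test compound was sprayed uniformly on the leaves.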

Amaranthus retroflexus = test: Test Example 4: herbicidal effect by soil treatment (symbol N); conditions: application herbicide amount 320 g/ha
How it was run: (§4)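 Seeds were sown in sterilized diluvial soil, covered with about 1.5 cm of soil, and the soil surface was sprayed with a water-diluted emulsion of the compound at a predetermined rate. Plants grew in a greenhouse at 25° C. to 30° C.; effects were scored visually 3 weeks after application.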

Cyperus difformis = test: Test Example 3: herbicidal effect by foliage application, Wagner pot (symbol E); conditions: application herbicide amount 320 g/ha
How it was run: as §3

Digitaria ciliaris = test: Test Example 4: herbicidal effect by soil treatment (symbol F); conditions: application herbicide amount 320 g/ha
How it was run: as §4

Abutilon theophrasti = test: Test Example 4: herbicidal effect by soil treatment (symbol M); conditions: application herbicide amount 320 g/ha
How it was run: as §4

SMILES	d (soybean) effect on crop grade (soybean)	Q: Galium spurium, herbicidal effect grade (Galium spurium)	K: Lolium multiflorum Lam., herbicidal effect grade (Lolium multiflorum Lam.)	c (corn) effect on crop grade (corn)	Herbicidal effect grade, C: Monochoria vaginalis (Monochoria vaginalis)	Herbicidal effect grade, A: Echinochloa oryzacola Vasing. [1]	f (beet) effect on crop grade (beet)	herbicidal effect on D (Leptochloa chinensis), grade 0-5 (Leptochloa chinensis)	N (Amaranthus retroflexus) herbicidal effect grade (Amaranthus retroflexus)	herbicidal effect on E, grade 0-5 (Cyperus difformis)	F (Digitaria ciliaris) herbicidal effect grade (Digitaria ciliaris)	M (Abutilon theophrasti) herbicidal effect grade (Abutilon theophrasti)
CON=C(C)CC1CC(OC(=O)C(C)Cl)=C(c2c(C)cc(C)cc2C)C1=O (stereo not drawn) [1-042]	0 (Herbicidal ratio of 5% or lower (almost no effect))	0 (Herbicidal ratio of 5% or lower (almost no effect))	5 (Herbicidal ratio of 90% or more (almost completely withered))	3 (Herbicidal ratio of 40% or higher and lower than 70%)	4 (Herbicidal ratio of 70% or higher and lower than 90%)	5 (Herbicidal ratio of 90% or more (almost completely withered))	0 (Herbicidal ratio of 5% or lower (almost no effect))	5 (Herbicidal ratio of 90% or more (almost completely withered))	4 (Herbicidal ratio of 70% or higher and lower than 90%)	5 (Herbicidal ratio of 90% or more (almost completely withered))	5 (Herbicidal ratio of 90% or more (almost completely withered))	5 (Herbicidal ratio of 90% or more (almost completely withered))
CON=C(C)CC1CC(OC(=O)COc2ccccc2)=C(c2c(C)cc(C)cc2C)C1=O (stereo not drawn) [1-043]	1 (Herbicidal ratio of 5% or higher and lower than 20%)	3 (Herbicidal ratio of 40% or higher and lower than 70%)	5 (Herbicidal ratio of 90% or more (almost completely withered))	4 (Herbicidal ratio of 70% or higher and lower than 90%)	2 (Herbicidal ratio of 20% or higher and lower than 40%)	5 (Herbicidal ratio of 90% or more (almost completely withered))	4 (Herbicidal ratio of 70% or higher and lower than 90%)	5 (Herbicidal ratio of 90% or more (almost completely withered))	4 (Herbicidal ratio of 70% or higher and lower than 90%)	5 (Herbicidal ratio of 90% or more (almost completely withered))	5 (Herbicidal ratio of 90% or more (almost completely withered))	4 (Herbicidal ratio of 70% or higher and lower than 90%)
CON=C(CC1CC(O)=C(c2c(C)cc(C)cc2C)C1=O)c1ccccn1 (stereo not drawn) [1-045]	0 (Herbicidal ratio of 5% or lower (almost no effect))	0 (Herbicidal ratio of 5% or lower (almost no effect))	5 (Herbicidal ratio of 90% or more (almost completely withered))	0 (Herbicidal ratio of 5% or lower (almost no effect))	0 (Herbicidal ratio of 5% or lower (almost no effect))	3 (Herbicidal ratio of 40% or higher and lower than 70%)	0 (Herbicidal ratio of 5% or lower (almost no effect))	4 (Herbicidal ratio of 70% or higher and lower than 90%)	0 (Herbicidal ratio of 5% or lower (almost no effect))	0 (Herbicidal ratio of 5% or lower (almost no effect))	0 (Herbicidal ratio of 5% or lower (almost no effect))	0 (Herbicidal ratio of 5% or lower (almost no effect))
CON=C(CC1CC(O)=C(c2c(C)cc(C)cc2C)C1=O)C1CC1 (stereo not drawn) [1-046]	0 (Herbicidal ratio of 5% or lower (almost no effect))	0 (Herbicidal ratio of 5% or lower (almost no effect))	5 (Herbicidal ratio of 90% or more (almost completely withered))	4 (Herbicidal ratio of 70% or higher and lower than 90%)	4 (Herbicidal ratio of 70% or higher and lower than 90%)	5 (Herbicidal ratio of 90% or more (almost completely withered))	0 (Herbicidal ratio of 5% or lower (almost no effect))	5 (Herbicidal ratio of 90% or more (almost completely withered))	2 (Herbicidal ratio of 20% or higher and lower than 40%)	5 (Herbicidal ratio of 90% or more (almost completely withered))	5 (Herbicidal ratio of 90% or more (almost completely withered))	4 (Herbicidal ratio of 70% or higher and lower than 90%)
CON=C(CC1CC(O)=C(c2c(C)cc(C)cc2C)C1=O)c1ccccc1 (stereo not drawn) [1-047]	0 (Herbicidal ratio of 5% or lower (almost no effect))	0 (Herbicidal ratio of 5% or lower (almost no effect))	4 (Herbicidal ratio of 70% or higher and lower than 90%)	0 (Herbicidal ratio of 5% or lower (almost no effect))	0 (Herbicidal ratio of 5% or lower (almost no effect))	2 (Herbicidal ratio of 20% or higher and lower than 40%)	0 (Herbicidal ratio of 5% or lower (almost no effect))	3 (Herbicidal ratio of 40% or higher and lower than 70%)	0 (Herbicidal ratio of 5% or lower (almost no effect))	0 (Herbicidal ratio of 5% or lower (almost no effect))	3 (Herbicidal ratio of 40% or higher and lower than 70%)	0 (Herbicidal ratio of 5% or lower (almost no effect))
CON=C(CC1CC(O)=C(c2c(C)cc(C)cc2C)C1=O)C(C)C (stereo not drawn) [1-048]	0 (Herbicidal ratio of 5% or lower (almost no effect))	1 (Herbicidal ratio of 5% or higher and lower than 20%)	5 (Herbicidal ratio of 90% or more (almost completely withered))	3 (Herbicidal ratio of 40% or higher and lower than 70%)	1 (Herbicidal ratio of 5% or higher and lower than 20%)	5 (Herbicidal ratio of 90% or more (almost completely withered))	0 (Herbicidal ratio of 5% or lower (almost no effect))	4 (Herbicidal ratio of 70% or higher and lower than 90%)	1 (Herbicidal ratio of 5% or higher and lower than 20%)	5 (Herbicidal ratio of 90% or more (almost completely withered))	5 (Herbicidal ratio of 90% or more (almost completely withered))	3 (Herbicidal ratio of 40% or higher and lower than 70%)
